According to patent publication US20250319053A1, “INHIBITORS OF THE PEPTIDYL-PROLYL CIS/TRANS ISOMERASE (PIN1), COMBINATIONS AND USES THEREOF” (DANA-FARBER CANCER INSTITUTE, INC., priority 2021, published 2025):

Experiments:
[1] = tested on: patient-derived PDAC tumors in PDTX mice; test: Patient-derived tumor orthotopic xenograft (PDTX) mouse model; format: in vivo
Source text: Allelic profiling of resulting KPC mice by the B6 panel (Jackson Laboratories) confirmed 129S1/SvImJ with average match of 84.2%, 129S4SvJae with average match of 83.8%, B6N with average match of 65.7% and B6J, with average match of 65.1%. 2) the KPC Genetically engineered mouse-derived orthotopic allografts (GDA) mouse model (Hingorani et al., Cancer Cell 7, 469-483 (2005); Li et al., Comput Struct Biotechnol J 17, 498-506 (2019)). Mouse PDAC cells were established from KPC mouse pancreatic tumor tissues, followed by orthotopically injecting 1×10^6 mouse PDAC cells in 50 μL Matrigel (356231, Coaning) into the pancreas of female 8 week-old syngeneic immunocompetent C57BL/6 mice (Jackson Laboratories). 3) PDAC Patient-derived Tumor orthotopic xenografted (PDTX) mouse model (Gilles et al., Clin Cancer Res 24, 1734-1747 (2018); Rubio-Viqueira et al., Clin Cancer Res 12, 4652-4661 (2006)). PDAC PDX tumors were obtained from Dr. Muthuswamy and Dr. Hidalgo and divided into 4×2 mm pieces, followed by xenografting orthotopically into the pancreas of female 8-week-old immunodeficient NOD.Cg-Prkdc^scid Il12rg^tm1Wjl/SzJ (NOD scid gamma; NSG) mice (Jackson Laboratories). 4) PDAC Patient-derived Organoid and CAFs orthotopic xenograft (PDOX) mouse model (Dantes et al., JCI Insight 5, 137809 (2020); (Koikawa et al., Cancer letters 425, 65-77 (2018)). 5×10^4 patient derived PDAC organoids and 5×10^4 patient derived CAFs in 50 μL of Matrigel were injected orthotopically into the pancreas of female 8 week-old immunodeficient NSG mice (Jackson Laboratories).
Briefly, all mice were randomly selected to receive treatments groups. Tumor sizes were measured by weekly palpation with electronic caliper or ultrasound, and when tumors were reached >0.5 cm, the treatment was started. Briefly, animals were placed under general anesthesia with 2%-3% isoflurane once a week. Under general anesthesia, the abdominal wall became very flaccid, and the muscle tone of the mouse was very low. The mouse was scuffed with the left hand to allow for palpation and measurement with the right hand. This allowed to detect the firm pancreatic mass by palpation, and to determine its size by electronic caliper measurements. […] In the GDA model and PDX models, palpable tumors predictably were detectable within 4-7 days post implantation. […] When the tumor by palpation after age 12 weeks could not be detected, the mice were monitored by ultrasound. Once the maximum length >0.5 cm tumor was detected, the mice were randomized to treatment, and then followed tumor growth by electronic caliper measurement. To validate the external caliper measurements, the tumor size was measured prior to euthanization of the mice and then measured the actual tumor size upon necropsy to ascertain concordance. […]

human PDAC organoids = test: Organoid apoptosis assay (caspase 3/7) with GEM or 5-FU; format: cell-based
Description: The organoids were isolated from Matrigel using collagenase, and seed Matrigel coated 96 well plate, and then treated with control (PBS) or GEM, or control (DMSO) or 5-FU, followed by assaying organoid apoptosis using fluorescent caspase 3/7 and live-cell time lapse imaging for 24 hr. At the start of coculture, a green-fluorescent caspase 3/7 probe reagent (R37111, Invitrogen) and Hoechst (135102, Invitrogen) was added to visualize cells undergoing apoptosis. Apoptotic organoids were monitored by time lapse imaging using BZ-X800 fluorescence microscope (KEYENCE) and quantified using BZ-X800 analyzer (ver. 1.1.1.8, KEYENCE). […] Synergy scores were calculated by Synergyfinder ver 2 (synergyfinder.fimm.fi/) (Ianevski et al., Nucleic Acids Res. 48 IW1), […]-[…] (2020)).

Pin1 = Pin1 (Homo sapiens, UniProt Q13526); test: Immunoblotting for Pin1 and substrate oncoproteins in CAFs; format: cell-based; design: endogenous in cells; conditions: 72 hrs
Description: Cultured cells were lysed in RIPA buffer (50 mM Tris-HCl, pH 7.2, 150 mM NaCl, 1% NP40, 0.1% sodium dodecyl sulfate (SDS), 0.25% Na-deoxycholate) with freshly added phosphatase inhibitors containing 5 mM NaF and 0.2 mM sodium orthovanadate (NA3VO4), and proteinase inhibitors containing 2 μg/mL Aprotinin, 2 μg/mL Leupeptin, 2 μg/mL Pepstatin A, 1 mM DTT (dithiothreitol), 0.5 mM 4-(2-aminoethyl)-benzenesulfonyl fluoride (AEBSF), and 20 mM Chymotrypsin, and then mixed with the SDS sample buffer and loaded onto a gel after boiling for 10 minutes at 95° C. The proteins were resolved by polyacrylamide gel electrophoresis and transferred to PVDF membrane. The transferred membrane was washed three times with Tris-buffered saline containing 0.1% Tween 20 (TBST). After blocking with TBST containing 5% milk or 3% bovine serum albumin (BSA) for 1 h room temperature, the membrane was incubated with the appropriate primary antibody (diluted 1:500-1:10000) in 5% milk or 3% BSA-containing TBST at 4° C. overnight. […] After three extensive washes with TBST for a total of 30 min, the immunoblots were visualized by enhanced chemi-luminescence. Immunoblotting results were quantified using ImageJ (NIH).

Sequence of Pin1 (Q13526 whole entry): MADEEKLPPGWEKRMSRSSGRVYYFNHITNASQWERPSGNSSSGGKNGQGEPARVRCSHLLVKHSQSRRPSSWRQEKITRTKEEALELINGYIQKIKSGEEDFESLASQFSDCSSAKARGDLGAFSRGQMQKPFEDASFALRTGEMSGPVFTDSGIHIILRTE

Row | Compound | Median survival ([1]; PDTX mice, FIG. 8M, GEM 20 mg/kg, n=6, vehicle 36 days) [days] | organoid apoptosis, agent alone (human PDAC organoids; GEM at 25 nM for 24 hrs) | Pin1 and its substrate oncoproteins (IB) (Pin1) | CAF activation (IF for αSMA or PDGFRα) ([1]; PDTX mice, 4 weeks) | collagen deposition (Sirius Red staining) ([1]; PDTX mice, 4 weeks) | tumor growth ([1]; overt tumor-bearing PDTX mice, 4 weeks) | apoptosis in WT organoids (human PDAC organoids; Pin1i−2 at 5 μM 3 days, then GEM at 25 nM for 24 hrs) | GEM-mediated organoid apoptosis (human PDAC organoids; pre-treated with Pin1i−1 at 10 μM or Pin1i−2 at 5 μM for 72 hrs, then GEM at 25 nM for 24 hrs)
1 | Nc1ccn([C@@H]2O[C@H](CO)[C@@H](O)C2(F)F)c(=O)n1 [GEM, gemcitabine, reference compound] | 42.5 | neither Pin1i nor GEM alone had obvious effect | – | – | – | – | – | –
2 | CC(C)(C)CN(C(=O)CCl)C1CCS(=O)(=O)C1 (centres unmarked) [Pin1i−2, sulfopin] | – | – | dose-dependently reduced Pin1 and its many substrate oncoproteins | significantly reduced | significantly reduced | significantly reduced tumor growth | induced apoptosis in WT organoids | greatly potentiated GEM-mediated organoid apoptosis
